Like-named read-outs stand apart in the source and are kept apart here.
What was measured:
[1] = molecular target: T1, Bombyx mori EcR (VP16 fusion, CVBE switch construct) (Bombyx mori, UniProt P49881); assay: Z3 Assay (HEK-293 cells with CVBE and 6XEcRE LacZ, β-galactosidase reporter); conditions: for Fold Induction, Z3 Assay, 3.3 uM: 3.3 uM ligand; for Fold Induction, Z3 Assay, 3.3 uM / Fold Induction, Z3 Assay, 33 uM: ligand treated / DMSO treated cells; for Fold Induction, Z3 Assay, 33 uM: 33 uM ligand; for Z3 assay Rel Max FI: maximum fold induction at any concentration relative to that of GS-E ligand; for fold induction at 3.3 µM: HEK293, read-out: Fold Induction, Z3 Assay, 3.3 uM; for fold induction at 33 µM: HEK293, read-out: Fold Induction, Z3 Assay, 33 uM
T1 sequence (P49881 86-606): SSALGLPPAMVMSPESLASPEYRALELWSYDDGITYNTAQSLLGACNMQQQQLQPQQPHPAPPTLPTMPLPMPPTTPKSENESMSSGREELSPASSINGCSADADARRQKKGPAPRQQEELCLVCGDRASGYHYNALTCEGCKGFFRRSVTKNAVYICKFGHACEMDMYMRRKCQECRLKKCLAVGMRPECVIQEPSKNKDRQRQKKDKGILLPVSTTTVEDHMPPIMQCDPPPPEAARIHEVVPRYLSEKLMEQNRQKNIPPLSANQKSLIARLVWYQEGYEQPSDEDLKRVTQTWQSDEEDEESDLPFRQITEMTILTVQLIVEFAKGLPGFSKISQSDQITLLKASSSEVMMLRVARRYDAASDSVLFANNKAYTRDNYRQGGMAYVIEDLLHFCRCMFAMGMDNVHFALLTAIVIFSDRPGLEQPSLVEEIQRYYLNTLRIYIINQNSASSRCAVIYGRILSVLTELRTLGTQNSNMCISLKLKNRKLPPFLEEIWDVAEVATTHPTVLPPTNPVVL
T1 sequence (P19793 1-462 partner): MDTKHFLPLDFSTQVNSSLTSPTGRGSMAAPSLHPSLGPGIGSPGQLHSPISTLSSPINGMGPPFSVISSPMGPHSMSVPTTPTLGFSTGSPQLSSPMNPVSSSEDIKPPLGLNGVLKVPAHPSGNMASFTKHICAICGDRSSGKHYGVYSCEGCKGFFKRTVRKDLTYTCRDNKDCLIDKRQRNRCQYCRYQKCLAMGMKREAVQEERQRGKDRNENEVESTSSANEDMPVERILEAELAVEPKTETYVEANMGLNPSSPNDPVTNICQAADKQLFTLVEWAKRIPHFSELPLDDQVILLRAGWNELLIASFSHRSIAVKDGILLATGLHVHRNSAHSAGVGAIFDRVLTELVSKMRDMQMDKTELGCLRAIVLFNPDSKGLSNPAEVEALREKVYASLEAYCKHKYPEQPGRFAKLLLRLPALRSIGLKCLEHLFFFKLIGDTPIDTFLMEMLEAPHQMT
Description: Dr. F. Gage provided a population of stably transformed cells containing CVBE and 6XEcRE as described in Suhr, S. T., Gil, E. B., Senut M. C., Gage, F. H. (1998) Proc. Natl. Acad. Sci. USA 95, 7999-804. Human 293 kidney cells, also referred to as HEK-293 cells, were sequentially infected with retroviral vectors encoding first the switch construct CVBE, and subsequently the reporter construct 6XEcRE Lac Z. The switch construct contained the coding sequence for amino acids 26-546 from Bombyx mori EcR (BE) (Iatrou) inserted in frame and downstream of the VP16 transactivation domain (VBE). A synthetic ATG start codon was placed under the control of cytomegalovirus (CVBE) immediate early promoter and flanked by long terminal repeats (LTR). The reporter construct contained six copies of the ecdysone response element (EcRE) binding site placed upstream of LacZ and flanked on both sides with LTR sequences (6XEcRE).
Dilution cloning was used to isolate individual clones. Clones were selected using 450 ug/mL G418 and 100 ng/mL puromycin. Individual clones were evaluated based on their response in the presence and absence of test ligands.
Human 293 kidney cells stably transformed with CVBE and 6XEcRE LacZ were maintained in Minimum Essential Medium (Mediates, 10-010-CV) containing 10% FBS (Life Technologies, 26140-087), […] G418 (Mediates, 30-234-CR), and […] (Sigma, P-7255), at 37° C. in an atmosphere containing 5% CO2 and were subculture when they reached 75% confluence.
Z3 cells were seeded into 96-well tissue culture plates at a concentration of 2.5×10^3 cells per well and incubated at 37° C. in 5% CO2 for twenty-four hours. Stock solutions of ligands were prepared in DMSO. Ligand stock solutions were diluted 100 fold in media and 50 μL of this diluted ligand solution ([…]) was added to cells. The final concentration of DMSO was maintained at 0.03% in both controls and treatments.
Reporter gene expression was evaluated 48 hours after treatment of cells, β-galactosidase activity was measured using Gal Screen™ bioluminescent reporter gene assay system from Tropix (GSY1000). Fold induction activities were calculated by dividing relative light units (“RLU”) in ligand treated cells with RLU in DMSO treated cells. Luminescence was detected at room temperature using a Dynex MLX microtiter plate luminometer.
Flanking both constructs are long terminal repeats, G418 and puromycin are selectable markers, CMV is the cytomegalovirus promoter, VBE is coding sequence for amino acids 26-546 from Bombyx mori EcR inserted downstream of the VP16 transactivation domain, 6×EcRE is six copies of the ecdysone response element, lacZ encodes for the reporter enzyme β-galactosidase.
(§1) Each assay was conducted in two separate wells, and the two values were averaged. Fold inductions were calculated by dividing relative light units (“RLU”) in ligand treated cells with RLU in DMSO treated cells. EC50s were calculated from dose response data using a three-parameter logistic model.

[2] = molecular target: GAL4 DBD-CfEcR(DEF)/VP16AD-MmRXRE (Choristoneura fumiferana, UniProt O77240); assay: 13B3 Assay (CHO stable cell line, luciferase reporter); conditions: for Fold Induction, 13B3 Assay, 33 uM: 33 uM ligand; for 13B3 assay Rel Max FI: maximum fold induction at any concentration relative to that of GS-E ligand, CHO 13B3 cells; for fold induction at 3.3 µM: read-out: Fold Induction, 13B3 Assay, 3.3 uM; for fold induction at 33 µM: read-out: Fold Induction, 13B3 Assay, 33 uM
Description: GAL4 DBD-CfEcR(DEF)/VP16AD-MmRXRE:
The wild-type D, E, and F domains from spruce budworm Choristoneura fumiferana EcR (“CfEcR-DEF”; SEQ ID NO: 1) were fused to a GALA DNA binding domain (“Gal4DBD1-147”; SEQ ID NO: 2) and placed under the control of the SV40e promoter of pM vector (PT3119-5, Clontech, Palo Alto, Calif.). The D and E domains from Mus Musculus RXR (“MmRXR-DE”; SEQ ID NO: 11) were fused to the transactivation domain from VP16 (“VP16AD”; SEQ ID NO: 6) and placed under the control of the SV40e promoter of the pVP16 vector (PT3127-5, Clontech, Palo Alto, Calif.).
CHO cells were transiently transfected with transcription cassettes for GAL4 DBD-CJEcR(DEF) and for VP16AD-MmRXRE controlled by SV40e promoters. Stably transfected cells were selected using Hygromycin. Individually isolated CHO cell clones were transiently transfected with a GALA RE-luciferase reporter (pFR-Luc, Stratagene, La Jolla, Calif.). The 13B3 clone was selected using Zeocin.
Cells were trypsinized and diluted to a concentration of 2.5×10^4 cells mL. 100 μL of cell suspension was placed in each well of a 96 well plate and incubated at 37° C. under 5% CO2 for 24 h. Ligand stock solutions were prepared in DMSO and diluted 300 fold for all treatments. Dose response testing consisted of 8 concentrations ranging from 33 μM to 0.01 μM.
(§2) Luciferase reporter gene expression was measured 48 h after cell treatment using Bright-Glo™ Luciferase Assay System from Promega (E2650). Luminescence was detected at room temperature using a Dynex MLX microtiter plate luminometer.
as §1

[3] = molecular target: GAL4 DBD (1-147)-CfEcR(DEF)/VP16AD-βRXREF-LmUSPEF (Choristoneura fumiferana, UniProt O77240); assay: cell-based
Description: GAL4 DBD (1-147)-CfEcR(DEF)/VP16AD-βRXREF-LmUSPEF:
The wild-type D, E, and F domains from spruce budworm Choristoneura fumiferana EcR (“CfEcR-DEF”; SEQ ID NO: 1) were fused to a GAL4 DNA binding domain (“Gal4DBD1-147”; SEQ ID NO: 2) and placed under the control of a phosphoglycerate kinase promoter (“PGK”; SEQ ID NO: 3). Helices 1 through 8 of the EF domains from Homo sapiens RXRβ (“HsRXRβ-EF”; nucleotides 1-465 of SEQ ID NO: 4) and helices 9 through 12 of the EF domains of Locusta migratoria Ultraspiracle Protein (“LmUSP-EF”; nucleotides 403-630 of SEQ ID NO: 5) were fused to the transactivation domain from VP16 (“VP16AD”; SEQ ID NO: 6) and placed under the control of an elongation factor-1α promoter (“EF-1α”; SEQ ID NO: 7). Five consensus GAL4 response element binding sites (“5XGAL4RE”; comprising 5 copies of a GAL4RE comprising SEQ ID NO: 8) were fused to a synthetic TATA minimal promoter (SEQ ID NO: 9) and placed upstream of the luciferase reporter gene (SEQ ID NO: 10).
CHO cells were transiently transfected with transcription cassettes for GAL4 DBD (1-147) CJEcR(DEF) and for VP16AD βRXREF-LmUSPEF controlled by ubiquitously active cellular promoters (PGK and EF-la, respectively) on a single plasmid. Stably transfected cells were selected by Zeocin resistance. Individually isolated CHO cell clones were transiently transfected with a GAL4 RE-luciferase reporter (pFR Luc). 27-63 clone was selected using Hygromycin.
Cells were trypsinized and diluted to a concentration of 2.5×10^4 cells mL. 100 μL of cell suspension was placed in each well of a 96 well plate and incubated at 37° C. under 5% CO2 for 24 h. Ligand stock solutions were prepared in DMSO and diluted 300 fold for all treatments. Dose response testing consisted of 8 concentrations ranging from […] to 0.01 μM.
as §2, §1

[4] = read-out: Z3 assay EC50, HEK-293 Z3 cells, β-galactosidase reporter, average of two wells
[5] = RLU ligand treated / RLU DMSO treated cells, average of two wells
[6] = 3.3 uM ligand, RLU ligand treated / RLU DMSO treated cells, average of two wells

`CCc1ccccc1C(=O)N(NC(=O)c1cccc(OC)c1C)C(C)(C)C` [RG-101062] was tested, and the “Fold Induction, Z3 Assay, 3.3 uM” value ([1]; average of two wells) was 1127, the “Fold Induction, Z3 Assay, 33 uM” value ([1]; average of two wells) was 391 and the “Z3 assay Rel Max FI” value ([1]; HEK-293 Z3 cells) was 0.992. For the same molecule, the EC50 [1, 4] was 2.57 µM and the “Fold Induction, 13B3 Assay, 33 uM” value [2, 5] was 319.
In the case of `Cc1cc(C(=O)N(NC(=O)c2cccc(Cl)c2C)C(C)(C)C)ccc1Br` [RG-101664], the “Fold Induction, Z3 Assay, 3.3 uM” value ([1]; average of two wells) is reported as 6, the “Fold Induction, Z3 Assay, 33 uM” value ([1]; average of two wells) is reported as 1 and the EC50 [1, 4] is reported as 21.1 µM. For the same molecule, the “Fold Induction, 13B3 Assay, 3.3 uM” value [2, 6] was 1, the “13B3 assay Rel Max FI” value [2] was 0.002 and the EC50 ([2]; read-out: 13B3 EC50, CHO 13B3 stable cell line, luciferase reporter, 48 h, average of two wells) was > 50 µM.
For `COc1cccc(C(=O)NN(C(=O)c2cc(C)cc(C)c2)C(C)(C)C)c1CN(C)C` [RG-115497, 3,5-dimethyl-benzoic acid N-tert-butyl-N′-(2-dimethylaminomethyl-3-methoxy-benzoyl)-hydrazide], the EC50 [1] was > 50 µM, the fold induction at 3.3 µM [1] was 1 and the fold induction at 33 µM [1] was 20. For the same molecule, the “Z3 assay Rel Max FI” value ([1]; HEK-293 Z3 cells) was 0.07, the EC50 [2] was > 50 µM and the “13B3 assay Rel Max FI” value [2] was 0. It also gave a fold induction at 3.3 µM [2] of 1.
With `C=Cc1c(OC)cccc1C(=O)NN(C(=O)c1cc(F)c(Cl)cc1Cl)C(C)(C)C` [RG-115534] the “Fold Induction, Z3 Assay, 3.3 uM” value ([1]; average of two wells) was 168, the “Fold Induction, Z3 Assay, 33 uM” value ([1]; average of two wells) was 249 and the “Z3 assay Rel Max FI” value ([1]; HEK-293 Z3 cells) was 0.463. The EC50 [1, 4] was 2.75 µM and the “Fold Induction, 13B3 Assay, 33 uM” value [2, 5] was 211.
For `CC(=O)Oc1cccc(C(=O)NN(C(=O)c2cc(C)cc(C)c2)C(C)(C)C)c1C` [RG-100749], the “Fold Induction, Z3 Assay, 3.3 uM” value ([1]; average of two wells) was 874, the “Fold Induction, Z3 Assay, 33 uM” value ([1]; average of two wells) was 145 and the “Z3 assay Rel Max FI” value ([1]; HEK-293 Z3 cells) was 0.951. The EC50 [1, 4] was 2.69 µM and the “Fold Induction, 13B3 Assay, 33 uM” value [2, 5] was 288.
With `COc1cccc(C(=O)NN(C(=O)c2cc(C)cc(C)c2)C(C)(C)C)c1CO` [RG-115371, 3,5-dimethyl-benzoic acid N-tert-butyl-N′-(2-hydroxymethyl-3-methoxy-benzoyl)-hydrazide] the EC50 [1] was 3.02 µM, the fold induction at 3.3 µM [1] was 249 and the fold induction at 33 µM [1] was 1770. The “Z3 assay Rel Max FI” value ([1]; HEK-293 Z3 cells) was 0.76, the EC50 [2] was > 50 µM and the “13B3 assay Rel Max FI” value [2] was 1.44. It also gave a fold induction at 3.3 µM [2] of 1 and a fold induction at 33 µM [2] of 1090.
`CCc1c(OC)cccc1C(=O)NN(C(=O)c1ccc2ncn(C(c3ccccc3)(c3ccccc3)c3ccccc3)c2c1)C(C)(C)C` [RG-115718, 3-trityl-3H-benzoimidazole-5-carboxylic acid N-tert-butyl-N′-(2-ethyl-3-methoxy-benzoyl)-hydrazide] showed a fold induction at 33 µM [2] of 2.
For `CCc1c(C(=O)NN(C(=O)c2ccc(F)cc2)C(C)(C)C)ccc2c1OCOC2` [RG-100574], the “Fold Induction, 27-63 Assay, 3.3 uM” value [3, 6] was 151, the “Fold Induction, 27-63 Assay, 33 uM” value ([3]; 33 uM ligand, RLU ligand treated / RLU DMSO treated cells, average of two wells) was 21 and the “27-63 assay Rel Max FI” value ([3]; maximum fold induction at any concentration relative to that of GS-E ligand, CHO 27-63 cells) was 0.371. The EC50 ([3]; read-out: 27-63 assay EC50, CHO 27-63 stable cell line, luciferase reporter, average of two wells) was 4 µM, the “Fold Induction, Z3 Assay, 33 uM” value ([1]; average of two wells) was 389 and the EC50 [1, 4] was 1.12 µM.

Reference: patent publication US9102648B1, “Bioavailable diacylhydrazine ligands for modulating the expression of exogenous genes via an ecdysone receptor complex” (Intrexon Corporation, priority 2003, dated 2015)
